Data set [1] addresses T1, Secretin receptor (Homo sapiens, UniProt P47872). The experiment in a line: Positive allosteric modulation of SCTR (unknown origin) overexpressed in CHO cells assessed as potentiation of SCT-induced cAMP production by measuring maximal response at 100 uM incubated for 20 mins by Lance cAMP assay relative to control (reference value: 100 %). The format is functional, cell-based. As to conditions: filed as positive allosteric modulator. For orientation: Cyclic AMP is a second messenger, typically raised through Gs and lowered through Gi signalling.

Data set [2] addresses T1, Secretin receptor. The experiment in a line: Negative allosteric modulation of SCTR (unknown origin) overexpressed in CHO cells assessed as decrease in SCT-induced cAMP production by measuring maximal response at 100 uM incubated for 20 mins by Lance cAMP assay relative to control (reference value: 100 %). Type of data set: functional, cell-based. The following applies: filed as negative allosteric modulator.

Data set [3] relates to Rattus norvegicus. The experiment in a line: Antihypertensive activity in anesthetized spontaneous hypertensive rat model assessed as reduction in mean arterial blood pressure at 1 mg/kg, po measured within 20 hrs in presence of 0.3 mg/kg Azilsartan relative to control. Type of data set: functional. Set-up: scale not given: the % may be the effect or the level left.
Data set [4] concerns Rattus norvegicus. The experiment in a line: Antihypertensive activity in anesthetized spontaneous hypertensive rat model assessed as reduction in mean arterial blood pressure at 0.26 microg/g, iv administered through tail vein and measured after 20 to 50 hrs by DSI telemetric transmitter based analysis relative to control. Type of data set: functional. On the set-up: scale not given: the % may be the effect or the level left. As to conditions: dose 0.26 µg/g, time 20-50 hrs.

Data set [5] can be described thus: Drug concentration in C57 mouse blood at 1000 mg/kg, po administered via gavage measured at 24 hrs by LC-MS/MS analysis. As to conditions: read-out: Ct. The format is ADME, organism-based.
The target in data set [6] is T1, Secretin receptor. Briefly: Positive allosteric modulation of SCTR (unknown origin) expressed in CHO cells assessed as potentiation of SCT-induced cAMP production by measuring maximal response at 100 uM incubated for 20 mins in presence of 1 uM SCT by Lance cAMP assay (reference value: 100 +/- 0.03%). The format is functional, cell-based. The following applies: filed as positive allosteric modulator.

Data set [7] relates to Rattus norvegicus. Briefly: Antihypertensive activity in anesthetized spontaneous hypertensive rat model assessed as reduction in mean arterial blood pressure at 50 mg/kg, po measured after 15 hrs relative to control. Type of data set: functional. On the set-up: scale not given: the % may be the effect or the level left.
The target in data set [8] is T1, Secretin receptor. Briefly: Positive allosteric modulation of SCTR (unknown origin) expressed in CHO cells assessed as potentiation of SCT-induced cAMP production by measuring maximal response at 10 uM incubated for 20 mins in presence of 1 uM SCT by Lance cAMP assay (reference value: 100 +/- 0.03%). The format is functional, cell-based. The following applies: filed as positive allosteric modulator.

The nature of data set [9]: Tmax in C57 mouse blood at 1000 mg/kg, po administered via gavage measured upto 24 hrs by LC-MS/MS analysis. The format is ADME, organism-based.
Data set [10] can be described thus: Drug concentration in C57 mouse blood at 1000 mg/kg, po administered via gavage measured after 12 hrs by LC-MS/MS analysis. The format is ADME, organism-based. As to conditions: read-out: Ct.
Data set [11] deals with T1, Secretin receptor. The experiment in a line: Synergistic agonist activity at SCTR (unknown origin) expressed in CHO cells assessed as fold increase in cAMP production at 100 uM incubated for 20 mins in presence of SCT by Lance cAMP assay (reference value: 4.13). Type of data set: functional, cell-based. As to conditions: filed as agonist.
Data set [12] addresses T1, Secretin receptor. Briefly: Positive allosteric modulation of SCTR (unknown origin) expressed in CHO cells assessed as potentiation of SCT-induced cAMP production by measuring maximal response at 1 uM incubated for 20 mins in presence of 1 uM SCT by Lance cAMP assay (reference value: 100 +/- 0.03%). As to conditions: filed as positive allosteric modulator. The format is functional, cell-based.

Data set [13] in a line: Drug concentration in C57 mouse blood at 1000 mg/kg, po administered via gavage measured at 6 hrs by LC-MS/MS analysis. As to conditions: read-out: Ct. The format is ADME, organism-based.
Data set [14] addresses T1, Secretin receptor. The experiment in a line: Agonist activity at SCTR (unknown origin) expressed in CHO cells assessed as increase in cAMP production incubated for 20 mins Lance cAMP assay. The format is functional, cell-based.
Data set [15] is described as follows: Cmax in C57 mouse blood at 1000 mg/kg, po administered via gavage measured upto 24 hrs by LC-MS/MS analysis. Type of data set: ADME, organism-based. On the set-up: time < 24 hrs, dose 1000 mg/kg, route po.
In data set [16] the target is T1, Secretin receptor. Briefly: Agonist activity at SCTR (unknown origin) expressed in CHO cells assessed as increase in cAMP production by measuring maximal response incubated for 20 mins Lance cAMP assay relative to control. The format is functional, cell-based.
Data set [17] in a line: Half life in C57 mouse blood at 1000 mg/kg, po administered via gavage measured upto 24 hrs by LC-MS/MS analysis. Type of data set: ADME, organism-based.
Data set [18] relates to Rattus norvegicus. The experiment in a line: Antihypertensive activity in anesthetized spontaneous hypertensive rat model assessed as reduction in mean arterial blood pressure at 30 mg/kg, po measured after 15 hrs relative to control. Type of data set: functional. Set-up: scale not given: the % may be the effect or the level left.
The test system of data set [19] is Rattus norvegicus. Briefly: Antihypertensive activity in anesthetized spontaneous hypertensive rat model assessed as reduction in blood pressure at 0.26 microg/g, iv administered through tail vein and measured after 20 to 50 hrs by DSI telemetric transmitter based analysis. The format is functional, organism-based. As to conditions: dose 0.26 µg/g, time 20-50 hrs.

pEC50: −log10 of the molar value. Activity calls are given as the source filed them. Where only a bound is given, the exact number is not on record here.

Experimental findings from ChEMBL document CHEMBL5352393, “Discovery of small-molecule modulators of the secretin receptor: Purmorphamine as novel anti-hypertensive agent” (Eur J Med Chem, 2022) are described below.

Usually Emax stands for the maximal effect, on the per cent scale that the assay sets. As usually defined, the Tmax is the time from dosing to the highest level. The term pEC50 denotes the EC50 on a negative log10 scale, so that one unit is a factor of ten. The Cmax is the highest concentration seen after dosing. What is called half-life is the time needed for the level to fall by half in the phase considered.

T1 sequence (P47872 whole entry): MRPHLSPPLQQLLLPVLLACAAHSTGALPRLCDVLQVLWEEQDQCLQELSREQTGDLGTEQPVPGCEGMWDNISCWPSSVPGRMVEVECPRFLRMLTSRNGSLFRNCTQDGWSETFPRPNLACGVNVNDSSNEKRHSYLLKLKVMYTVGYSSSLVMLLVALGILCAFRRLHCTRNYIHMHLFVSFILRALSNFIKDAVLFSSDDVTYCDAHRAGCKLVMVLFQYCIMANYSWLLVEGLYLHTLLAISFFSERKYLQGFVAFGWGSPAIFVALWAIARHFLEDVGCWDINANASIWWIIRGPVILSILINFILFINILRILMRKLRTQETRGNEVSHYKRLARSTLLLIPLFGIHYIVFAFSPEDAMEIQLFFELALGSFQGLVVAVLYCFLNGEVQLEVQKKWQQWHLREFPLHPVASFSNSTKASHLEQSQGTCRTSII

As to `O=C(O)c1cn(C2CCCCC2)c2nc(Oc3cccc4ccccc34)nc(Nc3ccc(N4CCOCC4)cc3)c12`, the Emax on Secretin receptor [1] is 157%.

For `OC1CCN(c2ccc(Nc3nc(Oc4cccc5ccccc45)nc4c3ncn4C3CCCCC3)cc2)CC1`, at Secretin receptor [1], the Emax came out at 166%.

Take `O[C@@H]1CCC[C@H](n2cnc3c(Nc4ccc(N5CCOCC5)cc4)nc(Oc4cccc5ccccc45)nc32)C1`: at Secretin receptor [1], the Emax was found to be 165%.

With `Oc1cc(N2CCOCC2)ccc1Nc1nc(Oc2cccc3ccccc23)nc2c1ncn2C1CCCCC1`, the Emax on Secretin receptor [1] worked out at 181%.

Consider `Oc1ccc2c(Oc3nc(Nc4ccc(N5CCOCC5)cc4)c4ncn(C5CCCCC5)c4n3)cccc2c1`, for which the Emax on Secretin receptor [1] is 146%.

For `c1ccc(-c2ccc(Nc3nc(Oc4cccc5ccccc45)nc4c3ncn4C3CCCCC3)cc2)cc1`, on Secretin receptor [2], the maximum response (Emax) was determined as 58.8%.

For the compound `c1ccc(Oc2ccc(Nc3nc(Oc4cccc5ccccc45)nc4c3ncn4C3CCCCC3)cc2)cc1`, on Secretin receptor [1], the Emax worked out at 98.8%.

Consider `c1ccc2c(Oc3nc(Nc4ccc(-c5cccc6ccccc56)cc4)c4ncn(C5CCCCC5)c4n3)cccc2c1`, for which the maximal effect (Emax) on Secretin receptor [2] was 54.1%.

`NS(=O)(=O)c1cc(C2(O)NC(=O)c3ccccc32)ccc1Cl` (stereo unspecified) [CHLORTHALIDONE]: the Activity in the data set with Rattus norvegicus [3] amounted to 22.72%.

With `c1ccc2c(Oc3nc(Nc4ccc(N5CCOCC5)cc4)c4ncn(C5CCCCC5)c4n3)cccc2c1` [PURMORPHAMINE], the results for the Activity in the data set with Rattus norvegicus [4], in the data set with Rattus norvegicus [7] and with Rattus norvegicus [18] were approximately 14%, 7.63% and 10.33%, respectively. Also, the concentration at 24 h in [5] was found to be 61 ng/mL. Besides, the maximal effect (Emax) is 238% at Secretin receptor [6]; 103% on Secretin receptor [8]; 117% at Secretin receptor [12]; 204% on Secretin receptor [1]; 10.3% on Secretin receptor [16]. The Tmax in data set [9] came to 30 min. Also, in data set [10], the concentration at 12 h is 260 ng/mL. Further, on Secretin receptor [11], the fold change (FC) came out at 6.1. Further, in data set [13], the concentration at 6 h was more than 300 ng/mL. The negative logarithm of the EC50 (pEC50) at Secretin receptor [14] is 3.72. In [15], this compound gave a peak concentration (Cmax) of 647 ng/mL. The compound further showed a half-life in [17] of 462 min. Also, the outcome with Rattus norvegicus [19] was Active.
